One data set can be described thus: in vitro. Particulars: human, hela cells, % viability.
Take `Cc1ccc(S(=O)(=O)NC(C)(C)CSc2nnc(N)s2)cc1` [CBK266350]: the viability (usually a read-out of living cells in per cent, often relative to untreated cells) at 28.5 h, 10 µM came to 97.1%.
The same measure, in the same setting: as for `Cc1cc2oc(C(=O)Nc3sc4c(c3C(=O)NC3CCS(=O)(=O)C3)CCC(C)C4)c(C)c2cc1C` (stereo not shown) [CBK266351], the figure is 92.2%; as for `O=C(O)c1ccc(CSc2nnc(-c3ccncc3)o2)cc1` [CBK266352], 98.5%; as for `O=C(NC1=NC2CCCCC2N1)c1ccccc1` (stereo not shown) [CBK266354], 103%.
The same measure, in the same setting: to `O=C1c2ccccc2C(=O)N1CCc1nc2ccccc2c(=O)n1-c1nc2ccccc2s1` [CBK266358] belongs 122%.
For `Cc1ccc(S(=O)(=O)NC(C)(C)CSc2ccccn2)cc1` [CBK266360], the viability at 28.5 h, 10 µM amounted to 86.1%.
Still for that read-out and setting: as for `COc1ccc(S(=O)(=O)N2Cc3ccccc3CC2C(=O)Nc2sc3c(c2C#N)CCCC3)cc1` (stereo not shown) [CBK266363], the figure is 116%.
Same read-out and setting: to `Cc1cccc(-n2c(CCc3ccccc3)nnc2SCC(=O)c2ccccc2)c1` [CBK266369] belongs 94%; to `CC1CCc2c(sc(NC(=S)NC(=O)c3ccc4c(c3)OCCO4)c2C(N)=O)C1` (stereo not shown) [CBK266370], 101%.
Same read-out and setting: as for `COc1ccccc1NC(=O)CCSc1nc(C)cc(C)n1` [CBK266371], the figure is 103%.
For the compound `Nc1nnc(SC2c3cccc4cccc(c34)C2NS(=O)(=O)c2ccc(Cl)cc2)s1` (stereo not shown) [CBK266373], the viability at 28.5 h, 10 µM is 99.7%.
As to `N#Cc1c(NC(=O)CSc2nnc(-c3ccncc3)o2)sc2c1CCCC2` [CBK266374], the viability at 28.5 h, 10 µM turned out to be 99.2%.
On the same count and under the same terms, as for `Cc1ccc(OCC(O)Cn2c(=N)n(CCN3CCCCC3)c3ccccc32)cc1` (stereo not shown) [CBK266375C], the figure is 98.9%.
On the same count and under the same terms, to `CS(=O)(=O)CCC(C(=O)O)N1C(=O)c2ccc(Oc3ccc(Cl)cc3)cc2C1=O` (stereo not shown) [CBK266377] belongs 92%; to `O=C(Nc1sc2c(c1C(=O)NCCc1ccccc1)CCC2)c1sc2ccccc2c1Cl` [CBK266379], 105%.
Same read-out and setting: to `Cn1c(/C(C#N)=C\c2ccc(-c3ccc(S(N)(=O)=O)cc3)o2)nc2ccccc21` [CBK266380] belongs 95%; to `O=C(CC1Nc2ccccc2NC1=O)Nc1ccc(F)c(Cl)c1` (stereo not shown) [CBK266381], 97%.
As for `Cc1cc(C)cc(NC(=O)CC2Sc3ccccc3NC2=O)c1` (stereo not shown) [CBK266384], the viability at 28.5 h, 10 µM was 94%.
On the same count and under the same terms, as for `COc1ccc(Cc2nc3ccccc3n2CCc2ccccc2)cc1` [CBK266385], the figure is 95.2%.
On the same count and under the same terms, as for `O=C(CSc1nnc(-c2ccco2)o1)c1ccc2c(c1)OCCO2` [CBK266387], the figure is 105%.
Same read-out and setting: as for `C=CCn1c(NCc2ccccc2NS(=O)(=O)c2ccc(C)cc2)nc2ccccc21` [CBK266393], the figure is 111%.
`CCOC(=O)c1ccc(COc2cccc(-c3cnc4ccccc4n3)c2)cc1` [CBK266395]: the viability at 28.5 h, 10 µM is 94.2%.
Still for that read-out and setting: as for `Nc1ccc(Oc2nc(Oc3ccc(N)cc3)c(F)c(Oc3ccc(N)cc3)c2F)cc1` [CBK266397C], the figure is 110%; as for `O=C(Nc1ccccc1N1CCN(C(=O)c2ccc(Cl)cc2)CC1)c1ccc(-c2cccc([N+](=O)[O-])c2)o1` [CBK266398], 93.3%.
Regarding `CC1CCCN(c2ccc(NC(=O)c3cccs3)cc2[N+](=O)[O-])C1` (stereo not shown) [CBK266402], the viability at 28.5 h, 10 µM is 102%.
`Cc1ccc(S(=O)(=O)N(CC(=O)Nc2cccnc2)c2cccc([N+](=O)[O-])c2)cc1` [CBK266404]: the viability at 28.5 h, 10 µM turned out to be 86%.
On the same count and under the same terms, as for `O=C(CCC1CCCC1)Nc1nnc[nH]1` [CBK266406], the figure is 100%; as for `COc1ccc(-c2nc3cc(C(C)C)ccc3o2)cc1NC(=O)Cc1ccc(Cl)cc1` [CBK266409], 96.9%.
The same measure, in the same setting: to `Cn1cc(C(c2ccccc2OCC(=O)O)c2cn(C)c3ccccc23)c2ccccc21` [CBK266410] belongs 112%; to `C=CCSc1nnc(-c2ccccc2NC(=O)CC)c(O)n1` [CBK266411], 115%; to `Cc1nc(-c2ccccc2)sc1C(=O)C1=C(O)C(=O)N(CCN(C)C)C1c1ccccc1` (stereo not shown) [CBK266415], 100%.
On to `O=C(O)Cn1c2ccc(Br)cc2c2nc3ccccc3nc21` [CBK266416], for which the viability at 28.5 h, 10 µM was found to be 97.1%.
Same read-out and setting: to `NS(=O)(=O)c1ccc(NC2=NC(=O)C(CC(=O)Nc3ccccc3)S2)cc1` (stereo not shown) [CBK266417] belongs 98.2%; to `COc1cccc(C(=O)C2=C(O)C(=O)N(CCCn3ccnc3)C2c2cccc(F)c2)c1` (stereo not shown) [CBK266419], 107%.
Consider `COc1cccc2cc(C(=O)C3=C(O)C(=O)N(CCCN4CCOCC4)C3c3ccc(C)cc3)oc12` (stereo not shown) [CBK266420], for which the viability at 28.5 h, 10 µM turned out to be 106%.
Consider `COc1cc(CNn2cnnc2S)ccc1OCC(=O)NC(C)(C)C` [CBK266429], for which the viability at 28.5 h, 10 µM was 92.5%.
Still for that read-out and setting: to `O=C(COc1ccc(S(=O)(=O)NC2CCCC2)cc1)Nc1ccc2c(c1)OCCO2` [CBK266431] belongs 101%; to `O=C(O)c1ccc(NC(=O)c2cn(-c3ccccc3)nc2-c2cc3ccccc3oc2=O)cc1` [CBK266432], 99.8%; to `COc1ccc2c(c1)C(C(C(=O)O)C(=O)O)c1ccccc1O2` (stereo not shown) [CBK266435], 93.8%.
With `Cc1nnc(SCc2nc(N)nc(Nc3ccccc3)n2)s1` [CBK266436], the viability at 28.5 h, 10 µM was found to be 109%.
Same read-out and setting: as for `COCCn1c(C)cc(C(=O)CSc2cc(C)c3ccccc3n2)c1C` [CBK266437], the figure is 70.3%; as for `Cc1cc(Cl)c(S(=O)(=O)N2CCN(c3ccc(F)cc3)CC2)cc1OCC(N)=O` [CBK266439], 98.3%.
On the same count and under the same terms, as for `CCOC(=O)c1c(NC(=O)CSc2ncnc3sc(C)c(C)c23)sc(C)c1C` [CBK266440], the figure is 118%.
Still for that read-out and setting: as for `O=C(C1=C(O)C(=O)N(CCCN2CCOCC2)C1c1ccccn1)c1ccc(Cl)cc1` (stereo not shown) [CBK266445], the figure is 112%; as for `CC1(C)CC(=O)C2=C(C1)Nc1ncnn1C2c1ccccc1F` (stereo not shown) [CBK266446], 88%; as for `N#Cc1nc(COc2cccc(Cl)c2)oc1NCc1ccncc1` [CBK266447], 95.7%.
Consider `Cc1cc(C)nc(Nc2n[nH]c(-c3cccc4ccccc34)n2)n1` [CBK266451], for which the viability at 28.5 h, 10 µM came to 99.3%.
Still for that read-out and setting: as for `Cc1cc(C)nc(NC2=NC3CCCCC3N2C(=O)Nc2ccc(Cl)c(Cl)c2)n1` (stereo not shown) [CBK266458], the figure is 97.5%; as for `CS(=O)(=O)N(CC(=O)NCc1ccccn1)c1cc(Cl)cc(Cl)c1` [CBK266459], 106%.
On the same count and under the same terms, as for `O=C(CSc1nnc2ccc3ccccc3n12)Nc1nsc(-c2ccc(Cl)cc2)n1` [CBK266460], the figure is 99.5%; as for `O=C(O)CSC1c2ccccc2Oc2ccc(F)cc21` (stereo not shown) [CBK266462], 98%.
On the same count and under the same terms, to `Cc1cc(C)c(C)c(CSCc2nc3ccccc3[nH]2)c1C` [CBK266466] belongs 98.8%.
Regarding `NS(=O)(=O)c1ccc(NC(=O)c2cc3c(n(-c4ccccc4)c2=O)CCCC3=O)cc1` [CBK266467], the viability at 28.5 h, 10 µM is 115%.
Same read-out and setting: to `N#Cc1nc(COc2ccc(Br)cc2)oc1NC1CC1` [CBK266470] belongs 94.6%.
On the same count and under the same terms, as for `CCN1CCN(c2ccc(NC(=O)c3cccc(OCc4ccccc4)c3)cc2)CC1` [CBK266471], the figure is 95%; as for `Cc1oc(C)c(C(=O)Nc2cccc(C(=O)O)c2)c1C(=O)Nc1cccc(C(=O)O)c1` [CBK266472], 108%.
Turning to `CC(Nc1nc(N2CCNCC2)nc2ccccc12)c1ccccc1` (stereo not shown) [CBK266475], the viability at 28.5 h, 10 µM came to 102%.
On the same count and under the same terms, to `Cc1nc(-c2ccccc2)sc1C(=O)C1=C(O)C(=O)N(CCCN2CCOCC2)C1c1ccco1` (stereo not shown) [CBK266476] belongs 111%.
On the same count and under the same terms, as for `COc1ccc(OC)c(NC(=O)CC2NCCNC2=O)c1` (stereo not shown) [CBK266477], the figure is 95.9%.
Same read-out and setting: to `COc1ccc(N2C(=O)CC(Nc3ccc(Cc4nc5ccccc5[nH]4)cc3)C2=O)cc1` (stereo not shown) [CBK266480] belongs 96.9%; to `Cc1cc(Cl)ccc1OC(C)C(=O)Nc1cc(C(=O)O)cc(C(=O)O)c1` (stereo not shown) [CBK266483], 103%.
Regarding `CCCc1cc(=O)[nH]c(N/C(=N/C(=O)c2ccccc2)Nc2ccc3c(c2)OCCO3)n1` [CBK266485], the viability at 28.5 h, 10 µM stood at 99.5%.
Same read-out and setting: to `O=C(CSc1nc2[nH]ncc2c(=O)n1-c1ccccc1)Nc1nsc(-c2ccccc2)n1` [CBK266486] belongs 101%.
Still for that read-out and setting: as for `COc1cc(S(=O)(=O)N2CCCN(S(=O)(=O)c3cc(OC)c(Cl)cc3OC)CC2)c(OC)cc1Cl` [CBK266489], the figure is 99.4%; as for `Cc1cc(C)n(C(=O)c2ccc([N+](=O)[O-])cc2N)n1` [CBK266491], 102%.
On to `Cc1sc2nc(SCc3nc(-c4ccccc4)no3)n(-c3ccccc3)c(=O)c2c1C` [CBK266492], for which the viability at 28.5 h, 10 µM was 110%.
Still for that read-out and setting: as for `Cc1c(C(=O)C2=C(O)C(=O)N(CCN3CCOCC3)C2c2ccccn2)cnn1-c1ccccc1` (stereo not shown) [CBK266493], the figure is 112%; as for `Cc1[nH]c2ccccc2c1C(=O)CSc1nc2ccccc2[nH]1` [CBK266494], 63.6%; as for `Cc1cc(Cl)c(S(=O)(=O)NCc2cccs2)cc1OCC(N)=O` [CBK266496], 101%.
In the case of `COc1ccc(CCNC(=O)Nc2ccccc2[N+](=O)[O-])cc1` [CBK266497], the viability at 28.5 h, 10 µM amounted to 96.8%.
Same read-out and setting: to `O=C(CSC1c2ccccc2Oc2ccccc21)Nc1ccccc1C(=O)O` [CBK266499] belongs 98.4%; to `O=C(CSc1ccccc1)Nc1cccc(Oc2ccc3c(c2)C(=O)NC3=O)c1` [CBK266500], 113%; to `Cc1ccc(CNS(=O)(=O)c2ccc3ccccc3c2)cc1` [CBK266501], 102%.
Turning to `CC(Sc1nc2ccccc2[nH]1)c1nc2ccccc2[nH]1` (stereo not shown) [CBK266502], the viability at 28.5 h, 10 µM was 89.7%.
The same measure, in the same setting: as for `CCN1CCN(c2ccc(NC(=O)c3ccc([N+](=O)[O-])c(C)c3)cc2)CC1` [CBK266503], the figure is 115%.

The data set is the same for the next values; noted with them: human, hela cells, % viability, bulk resorufin, single well.
Regarding `O=C1NC(=O)C(CCc2ccccn2)(Cc2ccc3c(c2)OCO3)C(=O)N1CCc1ccccc1` (stereo not shown) [CBK266392], the viability at 28.5 h, 10 µM came out at 98.7%.
